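Where inhibition never reached the appropriate level, the endpoint shown equals the highest concentration tested. Otherwise, values were interpolated linearly from a five-concentration, 48-hour dose response in 96-well plates. GI50 = concentration required for 50% inhibition of growth.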 Activity calls are given as the source filed them. Rule as the data show it: active = GI50 up to about 1.1 µM and inactive = higher.
What was measured:
Experiment in all cases: NCI anticancer screen, dose series, 48 h
[1] = system: MDA-N
[2] = system: T47D
[3] = system: RXF 631
[4] = system: KM-20L2
[5] = system: LXFL 529
[6] = system: DLD-1
[7] = system: SNB-78
[8] = system: DMS-114
[9] = system: XF498

Measured: GI50

COc1ccc(CCCC(=O)O)c(C)c1
inactive: [1] 62.4 µM | [2] 50.8 µM

O=C(O)C(CCc1ccccc1)N1C(=O)c2ccccc2C1=O (stereo unspecified)
inactive: [1] > 100 µM | [2] > 100 µM

COc1nc2[nH]ccc2c(=O)[nH]1
inactive: [3] > 100 µM | [4] > 100 µM | [5] > 100 µM | [6] > 100 µM | [7] > 100 µM | [8] > 100 µM

COc1cc(C(=O)C/C(CCC(=O)Nc2ccc(Cl)cc2Cl)=N/NC(=O)C(=O)NN)ccc1O
inactive: [9] > 100 µM | [3] > 100 µM | [4] > 100 µM | [5] > 100 µM | [6] > 100 µM | [8] > 100 µM

c1ccc(CSC(SCc2ccccc2)c2cccc3ccccc23)cc1
inactive: [1] > 10 µM | [2] 9.73 µM

CCOC(=O)COc1cccc2occc(=O)c12
inactive: [9] > 100 µM | [4] > 100 µM | [5] > 100 µM | [6] > 100 µM | [7] > 100 µM | [8] > 100 µM

CCCCC1=C(C(=O)N2CCOCC2)C2(OCCO2)C1=O
inactive: [1] 21.4 µM | [2] 33.9 µM

CCC(C)(C)n1c(C)nc2c1C(=O)c1ccccc1C2=O
inactive: [9] 16.8 µM | [4] 38.6 µM | [5] 13.9 µM | [6] 15.6 µM | [7] 46.5 µM

COC1OC(=O)[C@H]2O[N+]([O-])=C(C)[C@@H]12 (stereo partly specified)
inactive: [9] > 100 µM | [4] > 100 µM | [6] > 100 µM | [7] > 100 µM | [8] > 100 µM

OCC1OC(n2ccc3cnccc32)CC1O (stereo unspecified)
inactive: [5] > 100 µM | [6] > 100 µM | [7] > 100 µM | [8] > 100 µM

Cc1cn(Cc2cnnn2CC2OC(n3cc(C)c(=O)[nH]c3=O)CC2O)c(=O)[nH]c1=O (stereo unspecified)
inactive: [1] > 100 µM | [2] > 100 µM

Cc1cc(N(CCC#N)S(=O)(=O)c2ccccc2)ccc1/C=N\c1cccc(C(=O)O)c1
inactive: [3] > 100 µM | [4] > 100 µM | [5] > 100 µM | [7] > 100 µM | [8] 61 µM

FC(F)(F)C(C1=NC(C(F)(F)F)(C(F)(F)F)N=C(N2CCOCC2)O1)C(F)(F)F
inactive: [1] 19.1 µM | [2] 23.4 µM

Cc1ccc([N+](=O)[O-])cc1NC(=O)C(=O)C(C(=O)c1ccccc1F)C1OC(=O)c2ccccc21 (stereo unspecified)
inactive: [9] 81.5 µM | [3] 32.7 µM | [4] 34.6 µM | [5] 34 µM | [6] 41.5 µM | [7] > 100 µM | [8] 16.5 µM

COc1ccc(NC(=O)CC/C(CC(=O)c2ccccc2Cl)=N\Nc2nnc(C)n2N)cc1
inactive: [3] > 100 µM | [4] > 100 µM | [5] > 100 µM | [6] > 100 µM | [7] > 100 µM | [8] > 100 µM

O=C(c1cccs1)N(C(=S)OC12CC3CC(CC(C3)C1)C2)c1ccccc1
inactive: [1] 31.4 µM | [2] 76.7 µM

O=c1c2c3c(sc2nc(CN2CCNCC2)n1-c1ccccc1)CCCC3
inactive: [1] 89.1 µM | [2] 99.5 µM

CC(=O)OCC1OC(n2c(-c3ccc(Cl)cc3)cc(-c3ccccc3)c(C#N)c2=S)C(OC(C)=O)C(OC(C)=O)C1OC(C)=O (stereo unspecified)
inactive: [1] 11.3 µM | [2] 18.7 µM

CN(C)c1ccc(C2SCC(=O)N2NS(=O)(=O)c2cccc(C(=O)O)c2)cc1 (stereo unspecified)
inactive: [1] > 100 µM | [2] > 100 µM

CC1(C)COC2C(N(Cc3ccccc3)Cc3ccccc3)C(=O)N21 (stereo unspecified)
inactive: [4] 37.1 µM | [5] 51.3 µM | [6] 50 µM | [7] 42.6 µM

CN(C)c1n/c(=N/c2ccc(/N=c3\nc(N(C)C)ss3)cc2)ss1
inactive: [3] 22 µM | [4] 48.3 µM | [5] > 33.5 µM | [6] 13.4 µM | [7] 17.6 µM | [8] 16.7 µM

N#Cc1c(-c2ccccc2)cn(C(=O)c2ccccc2)c1N
inactive: [1] > 100 µM

— ChEMBL document CHEMBL1201862, “PubChem BioAssay data set” (2004)
